Some results are limits rather than exact numbers.

Sequence of GCN2 (Q9P2K8 whole entry): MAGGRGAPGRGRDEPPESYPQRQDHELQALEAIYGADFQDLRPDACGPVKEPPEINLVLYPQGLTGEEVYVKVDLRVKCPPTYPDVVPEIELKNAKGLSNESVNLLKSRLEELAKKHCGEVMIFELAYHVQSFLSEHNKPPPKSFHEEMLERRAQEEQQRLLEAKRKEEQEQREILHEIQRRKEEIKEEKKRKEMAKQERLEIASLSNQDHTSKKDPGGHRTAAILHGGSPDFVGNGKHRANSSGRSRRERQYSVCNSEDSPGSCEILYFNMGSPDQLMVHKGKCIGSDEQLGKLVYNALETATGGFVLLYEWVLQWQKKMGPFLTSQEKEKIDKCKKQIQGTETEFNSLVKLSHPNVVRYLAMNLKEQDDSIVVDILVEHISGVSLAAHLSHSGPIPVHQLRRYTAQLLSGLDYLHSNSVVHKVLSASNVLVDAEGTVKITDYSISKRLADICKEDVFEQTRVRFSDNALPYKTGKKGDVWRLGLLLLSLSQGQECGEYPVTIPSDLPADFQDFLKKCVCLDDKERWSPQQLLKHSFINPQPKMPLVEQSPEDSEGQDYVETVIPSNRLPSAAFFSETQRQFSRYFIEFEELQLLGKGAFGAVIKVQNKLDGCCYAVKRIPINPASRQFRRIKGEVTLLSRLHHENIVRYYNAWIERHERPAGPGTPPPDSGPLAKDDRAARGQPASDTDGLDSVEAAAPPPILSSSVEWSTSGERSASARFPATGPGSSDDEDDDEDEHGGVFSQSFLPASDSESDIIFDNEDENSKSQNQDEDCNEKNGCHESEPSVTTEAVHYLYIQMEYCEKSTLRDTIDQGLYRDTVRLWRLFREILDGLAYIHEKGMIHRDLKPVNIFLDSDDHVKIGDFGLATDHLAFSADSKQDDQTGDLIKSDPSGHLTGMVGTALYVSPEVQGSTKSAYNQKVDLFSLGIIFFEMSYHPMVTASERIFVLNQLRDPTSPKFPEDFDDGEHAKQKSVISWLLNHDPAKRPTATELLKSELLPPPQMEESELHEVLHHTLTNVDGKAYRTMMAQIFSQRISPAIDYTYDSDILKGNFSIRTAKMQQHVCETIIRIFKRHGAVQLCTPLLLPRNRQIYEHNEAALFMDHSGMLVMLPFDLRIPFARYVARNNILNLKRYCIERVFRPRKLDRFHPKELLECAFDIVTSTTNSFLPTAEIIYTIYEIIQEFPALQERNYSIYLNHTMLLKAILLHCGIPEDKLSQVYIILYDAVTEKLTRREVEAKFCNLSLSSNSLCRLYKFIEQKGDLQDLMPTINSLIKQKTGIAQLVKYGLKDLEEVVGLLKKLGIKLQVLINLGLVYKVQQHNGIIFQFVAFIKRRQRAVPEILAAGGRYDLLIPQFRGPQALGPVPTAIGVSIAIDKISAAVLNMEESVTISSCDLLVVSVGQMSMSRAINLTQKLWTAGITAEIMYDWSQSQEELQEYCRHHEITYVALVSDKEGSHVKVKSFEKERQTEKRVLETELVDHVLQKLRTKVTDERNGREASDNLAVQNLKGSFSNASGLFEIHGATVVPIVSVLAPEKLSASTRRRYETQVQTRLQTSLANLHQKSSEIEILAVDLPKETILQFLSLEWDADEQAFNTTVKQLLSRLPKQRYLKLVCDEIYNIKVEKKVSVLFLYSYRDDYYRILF

The target in one experiment is GCN2 (Homo sapiens, UniProt Q9P2K8). Briefly: GCN2 enzymatic endpoint assay: phosphorylation of GFP-eIF2α measured by TR-FRET (Lanthascreen). Type of experiment: biochemical. As to conditions: GCN2 biochemical IC50; 4 nM GCN2, 2 μM ATP, 80 nM GFP-eIF2α, 90 min RT; read-out: GCN2 activity. The method, boiled down:
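Endpoint kinase reaction with 2 μM ATP and 80 nM GFP-labelled eIF2α substrate, run at room temperature for 90 min, then stopped with EDTA. Phospho-substrate detected by terbium-antibody TR-FRET, activity taken as the 520/495 nm emission ratio.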
Turning to `CNC(=O)[C@]1(C)CC[C@@H](Nc2ncc3c(Br)nn(-c4cc(Cl)cc(CO)c4)c3n2)C1` [Example 46, (1R,3R)-3-((3-bromo-1-(3-chloro-5-(hydroxymethyl)phenyl)-1H-pyrazolo[3,4-d]pyrimidin-6-yl)amino)-N,1-dimethylcyclopentane-1-carboxamide; 2,2,2-trifluoroacetic acid], the IC50 is 25 to 200 nM.

Consider `CNC(=O)[C@]1(C)CC[C@@H](Nc2ncc3c(Br)nn(-c4cccc(NC(=O)c5cnccn5)c4)c3n2)C1` [Example 54, N-(3-(3-bromo-6-(((1R,3R)-3-methyl-3-(methylcarbamoyl)cyclopentyl)amino)-1H-pyrazolo[3,4-d]pyrimidin-1-yl)phenyl)pyrazine-2-carboxamide], for which the IC50 lay in the range of 25 to 200 nM.

Still in this experiment, the particulars now being: tested as described in Example 77; compound and/or hydrochloride, dihydrochloride or trifluoroacetic acid salt; read-out: IC 50 Activity.
Take `COCCNC(=O)[C@@H]1CC[C@@H](Nc2ncc3c(Br)nn(-c4ccc5ncc(F)cc5c4)c3n2)C1` [(1R,3R)-3-((3-bromo-1-(3-fluoroquinolin-6-yl)-1H-pyrazolo[3,4-d]pyrimidin-6-yl)amino)-N-(2-methoxyethyl)cyclopentane-1-carboxamide]: the IC50 was in the range of 25 to 200 nM.

Take `CNC(=O)[C@]1(C)CC[C@@H](Nc2ncc3c(Br)nn(-c4ccc(-c5ccon5)cc4)c3n2)C1` [(1R,3R)-3-[[3-bromo-1-(4-isoxazol-3-ylphenyl)pyrazolo[3,4-d]pyrimidin-6-yl]amino]-N,1-dimethyl-cyclopentane-carboxamide]: the IC50 was 25 to 200 nM.

For `Cc1nnc(-c2ccc(-n3nc(Br)c4cnc(N[C@@H]5CC[C@]6(CCNC6=O)C5)nc43)cc2)s1`, the IC50 was 25 to 200 nM.

For the molecule `CC(C)(CN1CCCC1)NC(=O)[C@@H]1CC[C@@H](Nc2ncc3c(Br)nn(-c4ccc5ncccc5c4)c3n2)C1`, the IC50 is 25 to 200 nM.

For `CNC(=O)[C@]1(CC(F)(F)F)CC[C@@H](Nc2ncc3c(Br)nn(-c4ccc(-c5nnc(C)s5)cc4)c3n2)C1`, the IC50 is 25 to 200 nM.

Take `CNC(=O)C1(C)CC[C@@H](Nc2ncc3c(Br)nn(-c4ccc5[nH]c(=O)cc(C)c5c4)c3n2)C1` (stereo partly drawn) [(3R)-3-[[3-bromo-1-(4-methyl-2-oxo-1H-quinolin-6-yl)pyrazolo[3,4-d]pyrimidin-6-yl]amino]-N,1-dimethyl-cyclopentanecarboxamide]: the IC50 fell in the range of 25 to 200 nM.

In the case of `COCCNC(=O)[C@@H]1CC[C@@H](Nc2ncc3c(Br)nn(-c4cc(F)c5ncccc5c4)c3n2)C1` [(1R,3R)-3-((3-bromo-1-(8-fluoroquinolin-6-yl)-1H-pyrazolo[3,4-d]pyrimidin-6-yl)amino)-N-(2-methoxyethyl)cyclopentane-1-carboxamide], the IC50 is 25 to 200 nM.

For the molecule `CNC(=O)[C@@H]1CC[C@@H](Nc2ncc3c(Br)nn(-c4ccc5ncc(Cl)cc5c4)c3n2)C1` [(1R,3R)-3-[[3-bromo-1-(3-chloro-6-quinolyl)pyrazolo[3,4-d]pyrimidin-6-yl]amino]-N-methyl-cyclopentanecarboxamide], the IC50 lay within 25 to 200 nM.

With `O=C(O)C12CCC(Nc3ncc4c(Br)nn(-c5ccc6ncccc6c5)c4n3)(C1)C2` [4-((3-bromo-1-(quinolin-6-yl)-1H-pyrazolo [3,4-d]pyrimidin-6-yl)amino)bicyclo[2.1.1] hexane-1-carboxylic acid], the IC50 lay within 500 to 1000 nM.

In the case of `O=C([C@@H]1CC[C@@H](Nc2ncc3c(Br)nn(-c4cc(F)c5ncccc5c4)c3n2)C1)n1ccc(C(F)(F)F)n1` [((1R,3R)-3-((3-bromo-1-(8-fluoroquinolin-6-yl)-1H-pyrazolo[3,4-d]pyrimidin-6-yl)amino)cyclopentyl)(3-(trifluoromethyl)-1H-pyrazol-1-yl)methanone], the IC50 fell in the range of 25 to 200 nM.

Take `CNC(=O)[C@]1(C)CC[C@@H](Nc2ncc3c(Br)nn(-c4ccc5nc(CNCCC#N)ccc5c4)c3n2)C1` [(1R,3R)-3-[[3-bromo-1-[2-[(2-cyanoethylamino)methyl]-6-quinolyl]pyrazolo[3,4-d]pyrimidin-6-yl]amino]-N,1-dimethyl-cyclopentane-carboxamide]: the IC50 was 25 to 200 nM.

As for `CNC(=O)[C@]1(C)CC[C@@H](Nc2ncc3c(Br)nn(-c4cc(C5CNCCO5)c5ncccc5c4)c3n2)C1` (stereo partly drawn) [(1R,3R)-3-[[3-bromo-1-(8-morpholin-2-yl-6-quinolyl)pyrazolo[3,4-d]pyrimidin-6-yl]amino]-N,1-dimethyl-cyclopentane-carboxamide], the IC50 lay within 25 to 200 nM.

Consider `CNC(=O)[C@]1(C)CC[C@@H](Nc2ncc3c(Br)nn(-c4ccc(-c5ncco5)c(CCN5CCOCC5)c4)c3n2)C1` [(1R,3R)-3-[[3-bromo-1-[3-(2-morpholino-ethyl)-4-oxazol-2-yl-phenyl]pyrazolo [3,4-d]pyrimidin-6-yl]amino]-N,1-dimethyl-cyclopentanecarboxamide], for which the IC50 is 25 to 200 nM.

Regarding `CNC(=O)[C@]1(C)CC[C@@H](Nc2ncc3c(Br)nn(-c4cc(OCCO)c5c(c4)OCC(=O)N5C)c3n2)C1` [(1R,3R)-3-[[3-bromo-1-[5-(2-hydroxyethoxy)-4-methyl-3-oxo-1,4-benzoxazin-7-yl]pyrazolo [3,4-d]pyrimidin-6-yl]amino]-N,1-dimethyl-cyclopentanecarboxamide], the IC50 was < 25 nM.

For `CN(C(=O)[C@]1(C)CC[C@@H](Nc2ncc3c(Br)nn(-c4cc(F)c5ncccc5c4)c3n2)C1)C(C)(C)CO` [(1R,3R)-3-[[3-bromo-1-(8-fluoro-6-quinolyl)pyrazolo[3,4-d]pyrimidin-6-yl]amino]-N-(2-hydroxy-1,1-dimethyl-ethyl)-N,1-dimethyl-cyclopentanecarboxamide], the IC50 is < 25 nM.

Regarding `CNC(=O)[C@]1(C)CC[C@@H](Nc2ncc3c(Br)nn(-c4ccc5nccc(P(C)(C)=O)c5c4)c3n2)C1` [(1R,3R)-3-[[3-bromo-1-(4-dimethyl-phosphoryl-6-quinolyl)pyrazolo[3,4-d]pyrimidin-6-yl]amino]-N,1-dimethyl-cyclopentanecarboxamide], the IC50 was 25 to 200 nM.

Take `CNC(=O)[C@]1(C)CC[C@@H](Nc2ncc3c(Br)nn(-c4cc(F)c5c(c4)CCO5)c3n2)C1` [(1R,3R)-3-[[3-bromo-1-(7-fluoro-2,3-dihydro-benzofuran-5-yl)pyrazolo[3,4-d]pyrimidin-6-yl]amino]-N,1-dimethyl-cyclopentane-carboxamide]: the IC50 was 25 to 200 nM.

Regarding `O=C(NC[C@H]1COCCN1)[C@@H]1CC[C@@H](Nc2ncc3c(Br)nn(-c4ccc5ncccc5c4)c3n2)C1` [(1R,3R)-3-((3-bromo-1-(quinolin-6-yl)-1H-pyrazolo[3,4-d]pyrimidin-6-yl)amino)-N-(((S)-morpholin-3-yl)methyl)cyclopentane-1-carboxamide], the IC50 was 25 to 200 nM.

With `Cc1nnc(-c2ccc(-n3nc(Br)c4cnc(NC5CC(P(C)(C)=O)C5)nc43)cc2)s1` (stereo not shown) [3-bromo-N-(3-dimethylphosphorylcyclo-butyl)-1-[4-(5-methyl-1,3,4-thiadiazol-2-yl)phenyl]pyrazolo[3,4-d]pyrimidin-6-amine], the IC50 lay in the range of 25 to 200 nM.

As for `CNC(=O)[C@]1(C)CC[C@@H](Nc2ncc3c(Br)nn(-c4cc(F)c5nc(C)cc(Cl)c5c4)c3n2)C1` [(1R,3R)-3-[[3-bromo-1-(4-chloro-8-fluoro-2-methyl-6-quinolyl)pyrazolo[3,4-d]pyrimidin-6-yl]amino]-N,1-dimethyl-cyclopentanecarboxamide], the IC50 lay in the range of 25 to 200 nM.

As for `CNC(=O)[C@]1(C)CC[C@@H](Nc2ncc3c(Br)nn(-c4ccc(-c5nnc(C)s5)c(CC(C)O)c4)c3n2)C1` (stereo partly drawn) [(1R,3R)-3-[[3-bromo-1-[3-(2-hydroxypropyl)-4-(5-methyl-1,3,4-thiadiazol-2-yl)phenyl]pyrazolo[3,4-d]pyrimidin-6-yl]amino]-N,1-dimethyl-cyclopentanecarboxamide], the IC50 lay within 25 to 200 nM.

Turning to `CNC(=O)[C@]1(C)CC[C@@H](Nc2ncc3c(Br)nn(-c4ccc5c(c4)CN(S(=O)(=O)CC(F)F)C5)c3n2)C1` [(1R,3R)-3-[[3-bromo-1-[2-(2,2-difluoroethylsulfonyl)isoindolin-5-yl]pyrazolo[3,4-d]pyrimidin-6-yl]amino]-N,1-dimethyl-cyclopentanecarboxamide], the IC50 was in the range of 25 to 200 nM.

With `Cc1nnc(-c2ccc(-n3nc(Br)c4cnc(N[C@@H]5CC[C@@](C)(CO)C5)nc43)cc2)s1` [[(1R,3R)-3-[[3-bromo-1-[4-(5-methyl-1,3,4-thiadiazol-2-yl)phenyl]pyrazolo [3,4-d]pyrimidin-6-yl]amino]-1-methyl-cyclopentyl]methanol], the IC50 is 25 to 200 nM.

For the molecule `CNC(=O)[C@@H]1CC[C@@H](Nc2ncc3c(I)nn(-c4ccc(-c5nnc(C)o5)cc4)c3n2)C1` [(1R,3R)-3-[[3-iodo-1-[4-(5-methyl-1,3,4-oxadiazol-2-yl)phenyl]pyrazolo[3,4-d]pyrimidin-6-yl]amino]-N-methyl-cyclopentanecarboxamide], the IC50 is 25 to 200 nM.

For `CNC(=O)[C@]1(C)CC[C@@H](Nc2ncc3c(Br)nn(-c4cc(CN5CCNCC5=O)c5ncccc5c4)c3n2)C1` [(1R,3R)-3-[[3-bromo-1-[8-[(2-oxopiperazin-1-yl)methyl]-6-quinolyl]pyrazolo[3,4-d]pyrimidin-6-yl]amino]-N,1-dimethyl-cyclopentanecarboxamide], the IC50 fell in the range of 25 to 200 nM.

Turning to `CNC(=O)[C@]1(C)CC[C@@H](Nc2ncc3c(Br)nn(-c4ccc5ncn(CCN)c(=O)c5c4)c3n2)C1`, the IC50 was in the range of 25 to 200 nM.

For the molecule `O=C([C@@H]1CC[C@@H](Nc2ncc3c(Br)nn(-c4ccc5ncccc5c4)c3n2)C1)N1CCS(=O)(=O)CC1` [((1R,3R)-3-((3-bromo-1-(quinolin-6-yl)-1H-pyrazolo[3,4-d]pyrimidin-6-yl)amino)cyclo-pentyl)(1,1-dioxidothiomorpholino)methanone], the IC50 lay within 25 to 200 nM.

On to `CC1(CNC(=O)[C@@H]2CC[C@@H](Nc3ncc4c(Br)nn(-c5ccc6ncccc6c5)c4n3)C2)COC1` [(1R,3R)-3-((3-bromo-1-(quinolin-6-yl)-1H-pyrazolo[3,4-d]pyrimidin-6-yl)amino)-N-((3-methyloxetan-3-yl)methyl)cyclopentane-1-carboxamide], for which the IC50 lay within 200 to 500 nM.

Take `O=C(N[C@H]1C[C@H](O)C1)[C@@H]1CC[C@@H](Nc2ncc3c(Br)nn(-c4cc(F)c5ncccc5c4)c3n2)C1`: the IC50 was in the range of 25 to 200 nM.

(Values after patent publication US11046699B2, “Pyrazolo-pyrimidin-amino-cycloalkyl compounds and their therapeutic uses” (RAPT THERAPEUTICS, INC., priority 2018, dated 2021).)
